Data on eight compounds can be found in patent US4061757A, “Compounds having juvenile hormone activity” (A/S Cheminova, priority 1971, dated 1977).

Bounds are passed on as bounds.

In one experiment the test system is Tenebrio molitor L. As to the kind of experiment: Tenebrio test (topical application to pupae, morphological inhibition of adult characters). To be noted: for ID-50 morph.: Table I, topical, acetone solution, 0.5 to 2 hours old pupae (150 mg), 27° C, 70% RH. In kind it is in vivo, Tenebrio molitor L (yellow mealworm). Here is the method:
(§1) The biological tests are examplified by tests on the yellow mealworm, Tenebrio molitor L, Galleria mellonella L, Culex pipiens L, Aedes aegypti L and Drosophila melanogaster L.
Tenebrio test: The material in question is applied topically to the abdomen of 0.5 to 2 hours old pupae of the said species, as a solution in acetone. The pupae are held at 27° C and 70% RH, ecdysis occuring 5 to 7 days later. The degree of inhibition of adult characters is referred to an arbitrary scale, where a morphologically perfect adult is given the character 0%, and a perfect second pupae 100%. In Table 1 is given the morphological inhibition dose 50% (ID 50 morph.) for some of the chemicals invented, in μg per standard pupa (150 mg). ID 50 morph. refers to specimens showing predominantly adult characters in the front part, pupal characters in the abdomen.
ID50 morph is as said above the dose causing development of individuals showing predominantly adult characters in the front part and pupal characters in the abdomen. It is known that ID50 -doses in general are 10 times greater than ED50 -doses.

Another experiment relates to Culex pipiens L. The experiment in a line: Culex test (mature larvae, loss of 50% of test animals). To be noted: Table I, read-out: IC-50 eclos. The experiment is classed as in vivo. Here is the method: The biological tests are examplified by tests on the yellow mealworm, Tenebrio molitor L, Galleria mellonella L, Culex pipiens L, Aedes aegypti L and Drosophila melanogaster L. Culex test: The compounds are tested on mature larvae. The concentration (IC-50 eclos.) is given in ppm.

The test system of experiment [1] is Drosophila melanogaster L. As to the kind of experiment: Drosophila test (compound in agar based food, pupae which fail in ecdysis). The experiment is classed as in vivo. The conditions noted are these: Table I, in artificial agar based food, pupae failing in ecdysis. Here is the method:
as §1
Drosophila test: One ml of acetone solution of the compound to be tested is mixed with an artificial agar based food mixture just before this solidifies. Ten less than one day old adult flies -- five of each sex -- are added, and all abnormalities observed for two generations. Juvenile hormone activity is especially noted in the pupae which fail in ecdysis. EC50 -eclos. is given in ppm.

The subject of another experiment is Aedes aegypti L. As to the kind of experiment: Aedes test (same test as for Culex). In kind it is in vivo. To be noted: Table I, mature larvae, loss of 50% of test animals, read-out: IC-50 eclos. Here is the method:
as §1
Culex test: The compounds are tested on mature larvae. The concentration (IC-50 eclos.) is given in ppm.
Aedes test: The same test as for Culex.

The subject of a further experiment is Tenebrio. To be noted: Table II, known compounds; dose causing abnormal development of 50% of treated pupae; data from Nature, Vol. 232, Aug. 13, 1971; cited from earlier work.

With `CCc1ccc(OCC=C(C)CCC2OC2(C)C)cn1` (stereo not drawn) [Compound 13, 6,7-Epoxy-3,7-dimethyl-1l-(6'-ethyl-3'-pyridyloxy)-2l-octene], in the experiment on Tenebrio molitor L, the ID-50 morph. is on record as 0.0001 μg/pupa. Further, the IC50 for inhibition of adult emergence (eclosion) in the experiment on Culex pipiens L worked out at 0.005 µg/mL. The compound also showed an EC-50 eclos in experiment [1] above 100 ppm. The IC50 (inhibition of eclosion) in the experiment on Aedes aegypti L is 0.1 µg/mL.

As for `CC(C)=CCC/C(C)=C/COc1ccc(C)nc1` [Compound 1, 3,7-dimethyl-1-(6'-methyl-3'-pyridyl-oxy)-2,6-octadiene], the ID-50 morph. in the experiment with Tenebrio molitor L amounted to 0.02 μg/pupa. For the same compound, in the experiment on Tenebrio molitor L (Table II, compounds of the formula I, Tenebrio), the “ID 50 morph.” value is recorded as 0,02 μg/150 mg pupa. Further, the IC50 for inhibition of adult emergence (eclosion) in the experiment with Culex pipiens L amounted to 0.5 µg/mL. In addition, the EC-50 eclos in experiment [1] is recorded as above 100 ppm. In the experiment with Aedes aegypti L, the IC50 (inhibition of eclosion) was determined as 0.5 µg/mL.

The compound `CCc1ccc(OCC=C(C)CCC2OC2(C)CC)cn1` (stereo not drawn) [Compound 30, 6,7-Epoxy-3,7-dimethyl-1l-(6'-ethyl-3'-pyridyloxy)-2l-nonene] had an ID-50 morph. in the experiment on Tenebrio molitor L of 0.0003 μg/pupa. Moreover, the IC50 for inhibition of adult emergence (eclosion) with Culex pipiens L is below 10 µg/mL. This compound also returned an EC-50 eclos in experiment [1] above 100 ppm. The IC50 (inhibition of eclosion) in the experiment with Aedes aegypti L is 0.5 µg/mL.

`CCOC(C)(C)CCCC(C)CCOc1ccc(CC)nc1` (stereo not drawn) [Compound 39, 7-Ethoxy-3,7-dimethyl-1l-(96'-ethyl-3'-pyridyloxy)-octane]: in the experiment on Tenebrio molitor L, the ID-50 morph. was 0.01 μg/pupa. Besides, the IC50 for inhibition of adult emergence (eclosion) in the experiment with Culex pipiens L is below 10 µg/mL. In experiment [1], this compound yielded an EC-50 eclos above 100 ppm. In addition, in the experiment with Aedes aegypti L, the IC50 (inhibition of eclosion) worked out at 0.5 µg/mL.

`COC(C)(C)CCCC(C)=CCOc1ccc(C)nc1` [Compound 21, 7-Metoxy-3,7-dimethyl-1-(6'-methyl-3'-pyridyloxy)-2-octene] gave an ID-50 morph. in the experiment on Tenebrio molitor L of 1.0 μg/pupa. For the same compound, the IC50 for inhibition of adult emergence (eclosion) in the experiment on Culex pipiens L was below 10 µg/mL. The IC50 (inhibition of eclosion) in the experiment with Aedes aegypti L was 1 µg/mL.

Regarding `CCc1ccc(OCCC(C)CCC2OC2(C)C)cn1` (stereo not drawn) [Compound 38, 6,7-Epoxu-3,7-dimethyl-1l-(6'-ethyl-3'-pyridyloxy)-octane], in the experiment with Tenebrio molitor L, the ID-50 morph. was found to be 0.005 μg/pupa. The IC50 for inhibition of adult emergence (eclosion) in the experiment on Culex pipiens L is below 10 µg/mL. Besides, in experiment [1], the EC-50 eclos is on record as above 100 ppm. The IC50 (inhibition of eclosion) in the experiment on Aedes aegypti L is below 1 µg/mL.

As for `C/C(=C\COc1ccc(C)cc1)CCC1OC1(C)C` (stereo not drawn) [R CH3, n 1], the ED50 in the experiment on Tenebrio is on record as 0,05 μg/pupa.

For `C/C(=C\COc1ccc(C)nc1)CCC1OC1(C)C` (stereo not drawn) [Compound 2, 6,7-epoxy-3,7-dimethyl-1-(6'-methyl-3'-pyridyloxy)-2-octene], the ID-50 morph. in the experiment with Tenebrio molitor L is 0.002 μg/pupa. Further, the IC50 (inhibition of eclosion) in the experiment with Aedes aegypti L came to 0.1 µg/mL.
